# From PubChem BioAssay (NCI)
#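 These data come from cells grown in 96-well plates and exposed to compound for 48 hours at five concentrations. GI50 marks 50% less growth. TGI is the concentration that stops growth completely.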
# Legend:
# Assay in all cases: NCI-60 cell line screen, 48 h
# [1] = test system: KM12 colon
# [2] = test system: M14 melanoma
# [3] = test system: SK-MEL-5 melanoma
# [4] = test system: U251 CNS
# [5] = test system: SW-620 colon
# [6] = test system: SNB-75 CNS
# [7] = test system: COLO 205 colon
# [8] = test system: 786-0 renal
# [9] = test system: HT29 colon
# [10] = test system: HS 578T breast
# [11] = test system: HCT-116 colon
# [12] = test system: HOP-92 NSCLC
# [13] = test system: PC-3 prostate
# [14] = test system: MOLT-4 leukemia
# [15] = test system: BT-549 breast
# [16] = test system: K-562 leukemia
# [17] = test system: UACC-257 melanoma
# [18] = test system: MALME-3M melanoma
# [19] = test system: NCI-H460 lung
# [20] = test system: OVCAR-5 ovarian
# [21] = test system: CAKI-1 renal
# [22] = test system: MDA-MB-231 breast
# [23] = test system: SR leukemia
# [24] = test system: HCC-2998 colon
# [25] = test system: NCI-H226 lung
# [26] = test system: IGROV1 ovarian
# [27] = test system: MCF7 breast
# [28] = test system: EKVX NSCLC
# [29] = test system: RPMI-8226 leukemia
# [30] = test system: DU-145 prostate
# [31] = test system: TK-10 renal
# [32] = test system: HL-60(TB) leukemia
# [33] = test system: T-47D breast
# [34] = test system: SK-MEL-2 melanoma
# [35] = test system: RXF 393 renal
# [36] = test system: A549 NSCLC
# [37] = test system: SK-MEL-28 melanoma
# [38] = test system: SF-539 CNS
# [39] = test system: ACHN renal
# [40] = test system: SNB-19 CNS
# [41] = test system: MDA-MB-435
# [42] = test system: NCI-H23 lung
# [43] = test system: A498 renal
# [44] = test system: HOP-62 NSCLC
# [45] = test system: CCRF-CEM leukemia
# [46] = test system: SF-268 CNS
# [47] = test system: OVCAR-4 ovarian
# [48] = test system: LOX IMVI melanoma
# [49] = test system: OVCAR-8 ovarian
# [50] = test system: HCT-15 colon
# [51] = test system: SK-OV-3 ovarian
# [52] = test system: NCI/ADR-RES ovarian
# [53] = test system: NCI-H522 lung
# [54] = test system: SF-295 CNS
# [55] = test system: OVCAR-3 ovarian
compound,measurement,setting,value
COC(=O)[C@]12CC[C@@H](C)[C@H](C)[C@@H]1C1=CC[C@@H]3[C@@]4(C)C[C@@H](OC(C)=O)[C@H](OC(C)=O)[C@@](C)(COC(C)=O)[C@@H]4[C@H](O)C[C@@]3(C)[C@]1(C)CC2,GI50,[1],1.03 µM
same,TGI,[1],> 100 µM
same,GI50,[2],1.28 µM
same,TGI,[2],> 100 µM
same,GI50,[3],0.367 µM
same,TGI,[3],1.72 µM
same,GI50,[4],0.86 µM
same,TGI,[4],> 100 µM
same,GI50,[5],0.892 µM
same,TGI,[5],> 100 µM
same,GI50,[6],4.32 µM
same,TGI,[6],> 100 µM
same,GI50,[7],0.513 µM
same,TGI,[7],6.25 µM
same,GI50,[8],1.8 µM
same,TGI,[8],> 100 µM
same,GI50,[9],0.659 µM
same,TGI,[9],> 100 µM
same,GI50,[10],8.15 µM
same,TGI,[10],> 100 µM
same,GI50,[11],0.423 µM
same,TGI,[11],> 100 µM
same,GI50,[12],3.9 µM
same,TGI,[12],> 100 µM
same,GI50,[13],0.535 µM
same,TGI,[13],> 100 µM
same,GI50,[14],0.901 µM
same,TGI,[14],11.5 µM
same,GI50,[15],1.4 µM
same,TGI,[15],81.4 µM
same,GI50,[16],0.356 µM
same,TGI,[16],> 100 µM
same,GI50,[17],2.43 µM
same,TGI,[17],8.21 µM
same,GI50,[18],3.82 µM
same,TGI,[18],74.8 µM
same,GI50,[19],0.505 µM
same,TGI,[19],16.2 µM
same,GI50,[20],7.04 µM
same,TGI,[20],> 100 µM
same,GI50,[21],0.93 µM
same,TGI,[21],> 100 µM
same,GI50,[22],1.91 µM
same,TGI,[22],> 100 µM
same,GI50,[23],0.465 µM
same,TGI,[23],9.4 µM
same,GI50,[24],2.81 µM
same,TGI,[24],> 100 µM
same,GI50,[25],5.09 µM
same,TGI,[25],> 100 µM
same,GI50,[26],2.17 µM
same,TGI,[26],> 100 µM
same,GI50,[27],1.57 µM
same,TGI,[27],27.9 µM
same,GI50,[28],2.14 µM
same,TGI,[28],> 100 µM
same,GI50,[29],1.04 µM
same,TGI,[29],> 100 µM
same,GI50,[30],3.55 µM
same,TGI,[30],> 100 µM
same,GI50,[31],3.08 µM
same,TGI,[31],> 100 µM
same,GI50,[32],0.59 µM
same,TGI,[32],11.4 µM
same,GI50,[33],1.03 µM
same,TGI,[33],8.04 µM
same,GI50,[34],1.85 µM
same,TGI,[34],> 100 µM
same,GI50,[35],6.88 µM
same,TGI,[35],61.4 µM
same,GI50,[36],2.06 µM
same,TGI,[36],> 100 µM
same,GI50,[37],2.74 µM
same,TGI,[37],> 100 µM
same,GI50,[38],3.92 µM
same,TGI,[38],> 100 µM
same,GI50,[39],2.71 µM
same,TGI,[39],> 100 µM
same,GI50,[40],3.54 µM
same,TGI,[40],> 100 µM
same,GI50,[41],1.86 µM
same,TGI,[41],> 100 µM
same,GI50,[42],2.25 µM
same,TGI,[42],> 100 µM
same,GI50,[43],1.92 µM
same,TGI,[43],68.5 µM
same,GI50,[44],3.25 µM
same,TGI,[44],> 100 µM
same,GI50,[45],1.96 µM
same,TGI,[45],> 100 µM
same,GI50,[46],2.62 µM
same,TGI,[46],> 100 µM
same,GI50,[47],3.21 µM
same,TGI,[47],> 100 µM
same,GI50,[48],0.54 µM
same,TGI,[48],> 100 µM
same,GI50,[49],3.15 µM
same,TGI,[49],> 100 µM
same,GI50,[50],0.43 µM
same,TGI,[50],> 100 µM
same,GI50,[51],3.1 µM
same,TGI,[51],> 100 µM
same,GI50,[52],3.16 µM
same,TGI,[52],> 100 µM
same,GI50,[53],1.92 µM
same,TGI,[53],89 µM
same,GI50,[54],2.84 µM
same,TGI,[54],> 100 µM
same,GI50,[55],2.3 µM
same,TGI,[55],> 100 µM
